Usually IC50 stands for the midpoint of a concentration-inhibition curve.

We go through four compounds from patent US5641779A, “Selective ligands of 5-HT1D -5-HT1B receptors derived from indolepiperazine which are useful medicaments” (Pierre Fabre Medicament, priority 1992, dated 1997).

The structures appear in SMILES notation. Counter-ions that a name gives are not always drawn. Like-named read-outs stand apart in the source and are kept apart here.

The target in experiment [1] is T1, 5-HT2 (Rattus norvegicus, UniProt P14842).
T1 construct: from tissue
The experiment can be described thus: 5-HT2 receptor binding (Leysen et al.). Particulars: 3H-ketanserine (title of cited method). The method, then: (§1) The IC50 values of the various products which form part of this invention for the other receptors were measured according to the techniques described in the following references:
Leysen J. E., Niemegeers C. J. E., Van Nueten J. M. and Laduron P.M. ^3 H-ketanserine (R 41468), a selective ^3 H ligand for serotonin2 receptor binding sites. Mol. Pharmacol., 21, 301-330, 1982.

Experiment [2] concerns the target T2, 5-HT1C (Sus scrofa, UniProt K7GSR7).
T2 construct: serotonergic ligands to the porcine choroid plexus; from tissue; host or cells: porcine choroid plexus
T2 sequence (K7GSR7 1-457): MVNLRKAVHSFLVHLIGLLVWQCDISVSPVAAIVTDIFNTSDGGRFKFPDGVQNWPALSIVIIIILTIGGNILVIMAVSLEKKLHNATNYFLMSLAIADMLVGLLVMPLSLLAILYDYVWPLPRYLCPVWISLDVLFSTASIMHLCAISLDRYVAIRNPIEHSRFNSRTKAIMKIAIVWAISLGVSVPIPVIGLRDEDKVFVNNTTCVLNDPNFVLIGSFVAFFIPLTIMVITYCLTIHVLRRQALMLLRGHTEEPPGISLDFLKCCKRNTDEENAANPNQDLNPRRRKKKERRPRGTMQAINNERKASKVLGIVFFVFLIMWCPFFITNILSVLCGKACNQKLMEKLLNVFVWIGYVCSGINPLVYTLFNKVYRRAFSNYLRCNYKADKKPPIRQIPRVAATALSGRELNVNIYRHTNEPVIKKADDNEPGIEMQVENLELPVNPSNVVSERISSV
Put plainly: 5-HT1C receptor binding (Pazos et al.). Further details: species or system porcine. On the procedure: as §1
Pazos A., Hoyer D. and Palacios J. M. The binding sites of serotonergic ligands to the porcine choroid plexus: characterization of a new type of serotonin recognition site. Eur. J. Pharmacol., 106, 539-546, 1985.

Experiment [3] addresses T3, α2-Adrenergic receptor (Rattus norvegicus, UniProt P22909).
T3 construct: in the rat brain; from tissue; host or cells: rat brain
T3 sequence (P22909 1-465): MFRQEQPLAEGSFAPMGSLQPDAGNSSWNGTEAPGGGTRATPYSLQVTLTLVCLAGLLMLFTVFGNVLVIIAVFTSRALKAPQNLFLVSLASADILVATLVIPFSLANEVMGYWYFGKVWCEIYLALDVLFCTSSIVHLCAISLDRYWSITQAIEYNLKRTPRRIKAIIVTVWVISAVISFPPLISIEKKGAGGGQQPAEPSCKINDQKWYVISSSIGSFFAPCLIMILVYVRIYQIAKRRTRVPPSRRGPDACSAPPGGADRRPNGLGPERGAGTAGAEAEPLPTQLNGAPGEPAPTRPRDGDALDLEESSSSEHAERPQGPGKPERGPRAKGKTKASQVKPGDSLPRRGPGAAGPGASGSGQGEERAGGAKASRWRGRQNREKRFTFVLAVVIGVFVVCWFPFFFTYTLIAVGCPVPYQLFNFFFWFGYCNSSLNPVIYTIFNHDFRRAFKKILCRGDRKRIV
The experiment can be described thus: α2-Adrenergic receptor binding (Mallard et al.). The method, then: as §1
Mallard N. J., Tyacke R., Hudson A. L. and Nutt D. S. Comparative binding studies of ^3 -idazoxan and ^3 -RX821002 in the rat brain. Brit. J. Pharmacol. 102, 221P, 1991.

In experiment [4] the target is α1-Adrenergic receptor. The experiment can be described thus: α1-Adrenergic receptor binding (Leslie Morrow and Creese). Conditions: rat brain (title of cited method). The method, then: as §1
Leslie Morrow A. and Creese I. Characterization of α1-adrenergic receptor subtypes in rat brain: a reevaluation of ^3 H-WB4101 and ^3 H prazosin binding. Mol. Pharmacol. 29, 321-330, 1986.

Experiment [5] has as its target T4, 5-HT1B (Rattus norvegicus, UniProt P28564).
T4 construct: from tissue; host or cells: rat frontal cortex
Put plainly: 5-HT1B receptor binding (Peroutka). On the procedure:
as §1
(§2) Peroutka S. J. Pharmacological differentiation and characterization of 5-HT1A, 5-HT1B and 5-HT1C binding sites in rat frontal cortex. J. Neurochem., 45, 529-540, 1986.

Experiment [6] deals with T5, 5-HT1A (Rattus norvegicus, UniProt P19327).
T5 construct: from tissue; host or cells: rat frontal cortex
T5 sequence (P19327 1-422): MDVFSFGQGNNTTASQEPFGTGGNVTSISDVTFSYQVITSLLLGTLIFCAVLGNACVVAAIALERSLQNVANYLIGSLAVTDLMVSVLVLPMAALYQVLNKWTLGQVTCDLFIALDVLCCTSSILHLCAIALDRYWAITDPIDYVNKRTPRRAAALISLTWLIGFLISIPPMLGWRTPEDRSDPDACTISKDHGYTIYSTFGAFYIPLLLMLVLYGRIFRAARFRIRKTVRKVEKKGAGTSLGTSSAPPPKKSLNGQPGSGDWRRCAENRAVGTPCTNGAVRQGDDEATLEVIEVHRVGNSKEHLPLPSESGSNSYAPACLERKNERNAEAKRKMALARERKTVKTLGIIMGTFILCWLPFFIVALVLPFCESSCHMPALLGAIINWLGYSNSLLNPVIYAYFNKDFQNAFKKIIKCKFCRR
The experiment can be described thus: 5-HT1A receptor binding (Peroutka). On the procedure: as §1, §2

Experiment [7] deals with 5-HT1D. Put plainly: Affinity for 5-HT1D receptors (3H-5-HT binding, sheep caudate nuclei membranes). Conditions: Ratio of the IC50 values for the 5HT1A and 5HT1D receptors. On the procedure:
This study is carried out according to the technique described by Herrick-Davis and Titeler (J. Neurochem. 50, 1624-1631, 1988).
Preparation of the membranes:
Sheep brains are removed at the local abattoir and transported in ice. The caudate nuclei are removed, weighed and homogenized with a Polytron for 20 sec. (speed 6-7) in 20 volumes of Tris-HCl 50 mM, pH 7.7. The homogenate is centrifuged for 10 min at 48,000 g with an L5 50E centrifuge (Beckman).
The pellet, taken up in 20 volumes of Tris-HCl 50 mM, pH 7.7, is placed in a water bath at 37° C. for 10 min and then recentrifuged for 10 min at 48,000 g. The pellet then obtained is immediately frozen in fractions containing 0.5 g of tissue.
The pellet is defrosted and homogenized with a Dounce in 80 volumes of Tris-HCl, 50 mM pH 7.7 containing 4 mM CaCl2, 10μM of pargyline and 0.1% of ascorbic acid.
Binding is carried out at 25° C. by incubating for 30 min:
0.1 ml of buffer or 10 μM, as final concentration, of sumatriptan, in order to obtain the non-specific binding, or the product which forms part of this invention at various concentrations (between 10^-10 and 10^-6 M).
0.8 ml of membrane suspension
0.1 ml of ^3 H-5-HT (15 to 30 Ci/mM, New England Nuclear France)
The incubation is brought to an end by rapid filtration through GF/B filters and rinsing with 3 times 3 ml of ice-cold buffer, using a harvester manufactured by Brandel which makes it possible to filter 48 samples. The filters are introduced into vials containing 4 ml of emulsifier-safe liquid scintillant (Packard) and the radioactivity measured with a Tri-carb 4640 counter (Packard).
The IC50 (concentration which inhibits the specific affinity by 50%) is determined graphically.

The target of experiment [8] is T6, D2-Dopaminergic receptor (Canis lupus familiaris, UniProt Q9GJU1).
T6 construct: from tissue
Put plainly: D2-Dopaminergic receptor binding (Nisnik et al.). On the procedure: as §1
Nisnik H. B., Grigoriadis D. E., Pri-Bar I., Buckman O. and Seeman P. Dopamine D2 receptors selectively labeled by a benzamide neuroleptic: ^3 H-YM-09159-2 Naunyn-Schmiedeberg's Arch. Pharmacol. 329, 333-343, 1985.

[9] abbreviates: rat brain (title of cited method), read-out: IC50 α2.
The mark [10] stands for this setting: 3H-YM-09159-2 (title of cited method), read-out: IC50 D2.

T6 sequence (Q9GJU1 whole entry): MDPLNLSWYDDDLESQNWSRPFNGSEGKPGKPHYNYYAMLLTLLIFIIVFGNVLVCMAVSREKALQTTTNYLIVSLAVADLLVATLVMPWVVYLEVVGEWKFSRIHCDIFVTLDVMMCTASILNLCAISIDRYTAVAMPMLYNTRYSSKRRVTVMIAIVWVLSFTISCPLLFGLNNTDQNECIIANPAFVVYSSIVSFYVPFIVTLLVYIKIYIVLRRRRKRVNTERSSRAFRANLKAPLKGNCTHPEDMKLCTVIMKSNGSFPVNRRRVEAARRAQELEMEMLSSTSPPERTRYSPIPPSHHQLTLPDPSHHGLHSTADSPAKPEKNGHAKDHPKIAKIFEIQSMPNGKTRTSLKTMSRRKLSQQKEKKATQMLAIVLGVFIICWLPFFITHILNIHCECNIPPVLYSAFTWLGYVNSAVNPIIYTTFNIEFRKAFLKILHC
T1 sequence (P14842 whole entry): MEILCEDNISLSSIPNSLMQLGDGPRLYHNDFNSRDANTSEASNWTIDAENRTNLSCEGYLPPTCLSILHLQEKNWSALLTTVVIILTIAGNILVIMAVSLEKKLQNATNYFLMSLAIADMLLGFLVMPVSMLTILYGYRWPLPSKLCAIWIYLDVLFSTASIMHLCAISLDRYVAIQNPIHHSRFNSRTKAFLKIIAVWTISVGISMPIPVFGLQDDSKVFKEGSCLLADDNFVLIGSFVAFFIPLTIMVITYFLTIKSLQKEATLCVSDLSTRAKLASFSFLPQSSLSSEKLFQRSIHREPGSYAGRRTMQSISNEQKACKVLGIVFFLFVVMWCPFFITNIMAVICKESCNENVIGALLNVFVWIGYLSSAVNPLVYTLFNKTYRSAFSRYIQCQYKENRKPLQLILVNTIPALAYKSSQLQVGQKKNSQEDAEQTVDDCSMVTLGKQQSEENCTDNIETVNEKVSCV
T4 sequence (P28564 whole entry): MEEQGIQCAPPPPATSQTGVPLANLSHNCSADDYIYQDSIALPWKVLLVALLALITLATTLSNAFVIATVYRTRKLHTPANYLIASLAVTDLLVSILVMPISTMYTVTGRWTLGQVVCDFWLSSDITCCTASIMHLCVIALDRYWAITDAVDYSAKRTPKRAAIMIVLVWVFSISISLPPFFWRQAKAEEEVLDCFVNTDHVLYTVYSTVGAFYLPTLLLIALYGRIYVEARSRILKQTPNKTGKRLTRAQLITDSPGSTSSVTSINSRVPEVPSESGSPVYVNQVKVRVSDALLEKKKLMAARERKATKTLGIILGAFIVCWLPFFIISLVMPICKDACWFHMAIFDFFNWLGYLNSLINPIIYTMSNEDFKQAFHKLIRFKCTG

In the case of `NCCc1c[nH]c2ccc(OCC(=O)N3CCN(c4cccc(C(F)(F)F)c4)CC3)cc12` [Example 3, 4-(a,a,a-Trifluoro-m-tolyl)-1-(tryptamine-5-O-carboxymethyl) piperazide hydrochloride], the IC50 in experiment [1] is > 1 µM; in experiment [2], 4 µM; in experiment [3] (setting [9]), > 1 µM; in experiment [4] it was > 1 µM; in experiment [5], 0.0019 µM; in experiment [6], 0.0335 µM. Besides, the half-inhibitory concentration (IC50) in experiment [8] (setting [10]) is > 1 µM. The “Ratio 1A/1D” value in experiment [7] is 4.8.

As for `Cc1ccccc1N1CCN(C(=O)COc2ccc3[nH]cc(CCN)c3c2)CC1` [Example 1, 4-o-Tolyl-1-.(tryptamine-5-O-carboxymethyl)-piperazide hydrochloride], the IC50 is > 1 µM in experiment [1]; 3 µM in experiment [2]; > 1 µM in experiment [3] (setting [9]); > 1 µM in experiment [4]; 0.0006 µM in experiment [5]; 0.0235 µM in experiment [6]. Also, in experiment [8] (setting [10]), the IC50 was > 1 µM. In experiment [7], the “Ratio 1A/1D” value is listed as 11.2.

On to `COc1cccc(N2CCN(C(=O)COc3ccc4[nH]cc(CCN)c4c3)CC2)c1` [Example 6, 4-(m-Methoxyphenyl)-1-(tryptamine-5-O-carboxymethyl) piperazide hydrochloride], for which the IC50 in experiment [1] is > 1 µM; in experiment [2] (porcine choroid plexus (title of cited method), read-out: IC50 5-HT1C), > 1 µM; in experiment [3] it was > 1 µM; in experiment [4] it was > 1 µM; in experiment [5], 0.0011 µM; in experiment [6] it was 0.0235 µM. The IC50 in experiment [8] was > 1 µM. Besides, the “Ratio 1A/1D” value in experiment [7] was found to be 8.1.

Consider `NCCc1c[nH]c2ccc(OCC(=O)N3CCN(c4cccc5ccccc45)CC3)cc12` [Example 4, 4-(Naphth-1-yl)-1-(tryptamine-5-O-carboxymethyl) piperazide hydrochloride], for which the IC50 in experiment [1] was > 1 µM; in experiment [2] it was 1.8 µM; in experiment [3] (setting [9]) it was > 1 µM; in experiment [4], > 1 µM; in experiment [5], 0.0019 µM; in experiment [6] (rat frontal cortex (title of cited method), mean, read-out: IC50 5-HT1A mean), 0.115 µM. Also, in experiment [8] (setting [10]), the IC50 was > 1 µM. In experiment [7], the “Ratio 1A/1D” value is listed as 35.9.
